Settings: Liquid, Rate of evaporation

CCCCCCCC[P+](CCCCCC)(CCCCCC)CCCCCC.F[P-](F)(F)(F)(F)F [trihexyloctylphosphonium hexafluorophosphate]
Settings | vapor or sublimation pressure [kPa]
408.34 K | 3.4e-10
410.85 K | 4.4e-10
410.96 K | 4.8e-10
413.36 K | 6.3e-10
415.82 K | 8.4e-10
415.89 K | 8e-10
418.37 K | 1.1e-09
420.79 K | 1.5e-09
420.83 K | 1.5e-09
423.37 K | 2e-09
425.75 K | 2.7e-09
425.79 K | 2.7e-09
428.38 K | 3.6e-09
430.75 K | 4.6e-09
430.81 K | 4.7e-09
433.38 K | 6.1e-09
435.72 K | 8e-09
435.73 K | 7.9e-09
438.4 K | 1.1e-08
440.74 K | 1.4e-08
443.39 K | 1.8e-08
445.76 K | 2.3e-08
448.39 K | 3e-08
450.79 K | 3.9e-08
450.8 K | 3.8e-08
453.43 K | 5.1e-08
455.83 K | 6.5e-08
455.85 K | 6.4e-08

CCCCCCCC[P+](CCCCCCCC)(CCCCCCCC)CCCCCCCC.[Cl-] [tetraoctylphosphonium chloride]
Settings | vapor or sublimation pressure [kPa]
408.38 K | 1.5e-10
410.9 K | 2.3e-10
413.32 K | 2.9e-10
413.46 K | 3.3e-10
415.87 K | 4.2e-10
418.26 K | 5.5e-10
418.44 K | 5.9e-10
420.79 K | 7.9e-10
423.23 K | 1e-09
423.41 K | 1.2e-09
425.8 K | 1.5e-09
428.2 K | 2e-09
428.36 K | 2e-09
430.73 K | 2.7e-09
433.18 K | 3.8e-09
433.31 K | 3.7e-09
435.74 K | 5e-09
438.21 K | 6.7e-09
438.28 K | 6.6e-09
440.77 K | 8.8e-09
443.21 K | 1.2e-08
443.3 K | 1.2e-08
445.8 K | 1.5e-08
448.27 K | 2.1e-08
448.33 K | 2e-08
450.84 K | 2.6e-08
453.31 K | 3.9e-08
453.36 K | 3.4e-08
455.89 K | 4.6e-08
458.4 K | 6.2e-08

CCCCCCCCCCCCCC[P+](CCCCCC)(CCCCCC)CCCCCC.O=S(=O)([N-]S(=O)(=O)C(F)(F)F)C(F)(F)F
Settings | vapor or sublimation pressure [kPa]
399.34 K | 2.3e-11
404.33 K | 4.6e-11
405.52 K | 5.3e-11
407.95 K | 7.1e-11
408.01 K | 7.5e-11
409.24 K | 8.6e-11
409.33 K | 8.9e-11
410.52 K | 1e-10
412.96 K | 1.4e-10
413 K | 1.5e-10
413.93 K | 1.7e-10
414.15 K | 1.7e-10
414.24 K | 1.7e-10
414.33 K | 1.7e-10
415.52 K | 2e-10
417.97 K | 2.9e-10
418 K | 2.7e-10
419.13 K | 3.2e-10
419.16 K | 3.3e-10
419.24 K | 3.1e-10
419.33 K | 3.2e-10
420.52 K | 3.8e-10
422.97 K | 5.4e-10
423.01 K | 5.1e-10
423.46 K | 5.2e-10
424.17 K | 6.4e-10
424.24 K | 6.4e-10
424.31 K | 6.1e-10
425.53 K | 7.3e-10
427.91 K | 9.2e-10
427.98 K | 1e-09
428.01 K | 1e-09
429.18 K | 1e-09
429.24 K | 1e-09
429.26 K | 1.1e-09
430.53 K | 1.3e-09
432.25 K | 1.5e-09
433 K | 1.8e-09
433.02 K | 1.7e-09
434.17 K | 2e-09
434.2 K | 1.9e-09
434.24 K | 1.9e-09
435.54 K | 2.3e-09
436.8 K | 2.6e-09
438.01 K | 3.1e-09
438.02 K | 3e-09
439.04 K | 3.4e-09
439.21 K | 3.6e-09
439.23 K | 3.4e-09
440.54 K | 4e-09
441.79 K | 4.6e-09
443.01 K | 5.2e-09
443.03 K | 5.2e-09
443.88 K | 5.8e-09
444.2 K | 5.9e-09
444.26 K | 6.3e-09
445.56 K | 6.9e-09
446.75 K | 8e-09
448.02 K | 8.9e-09
448.07 K | 8.7e-09
449.16 K | 1e-08
449.26 K | 1e-08
450.57 K | 1.2e-08
451.67 K | 1.4e-08
453.06 K | 1.4e-08
454.09 K | 1.7e-08
454.27 K | 1.9e-08
456.51 K | 2.2e-08
458.95 K | 2.8e-08

CCCCCC[P+](CCCCC)(CCCCCC)CCCCCC.F[P-](F)(F)(F)(F)F [trihexylpentylphosphonium hexafluorophosphate]
Settings | vapor or sublimation pressure [kPa]
403.41 K | 5e-10
405.89 K | 6.6e-10
408.27 K | 8.8e-10
410.78 K | 1.2e-09
413.19 K | 1.6e-09
415.69 K | 2.1e-09
418.15 K | 2.8e-09
420.65 K | 3.7e-09
423.13 K | 4.8e-09
425.62 K | 6.5e-09
428.15 K | 8.5e-09
430.63 K | 1.1e-08
433.15 K | 1.4e-08
435.65 K | 1.8e-08
438.17 K | 2.4e-08
440.7 K | 3.1e-08
443.21 K | 3.9e-08
445.73 K | 5.1e-08
448.25 K | 6.5e-08
450.79 K | 8.3e-08

CCCCCCC[P+](CCCCCC)(CCCCCC)CCCCCC.O=S(=O)([N-]S(=O)(=O)C(F)(F)F)C(F)(F)F [trihexylheptylphosphonium bis(trifluoromethanesulfonyl)imide]
Settings | vapor or sublimation pressure [kPa]
408.53 K | 6.2e-10
410.91 K | 8.8e-10
413.56 K | 1.1e-09
415.89 K | 1.6e-09
418.57 K | 2.1e-09
420.85 K | 2.8e-09
423.58 K | 3.8e-09
425.82 K | 4.9e-09
428.58 K | 6.7e-09
430.8 K | 8.5e-09
433.58 K | 1.2e-08
435.79 K | 1.5e-08
438.58 K | 2e-08
440.78 K | 2.5e-08
443.58 K | 3.4e-08
445.8 K | 4.2e-08
448.56 K | 5.8e-08
450.83 K | 7e-08
453.59 K | 9.5e-08
455.88 K | 1.16e-07

CCCCCCCCCCCCCC[P+](CCCC)(CCCC)CCCC.O=S(=O)([N-]S(=O)(=O)C(F)(F)F)C(F)(F)F
Settings | vapor or sublimation pressure [kPa]
393.28 K | 1.6e-09
395.67 K | 2e-09
398.14 K | 2.9e-09
400.54 K | 4.1e-09
403.07 K | 5.3e-09
405.5 K | 7.3e-09
408.02 K | 1e-08
410.51 K | 1.4e-08
413.04 K | 1.8e-08
415.54 K | 2.5e-08
418.06 K | 3.3e-08
420.57 K | 4.4e-08
423.09 K | 6e-08
425.61 K | 7.6e-08
428.14 K | 1.03e-07
430.65 K | 1.35e-07
433.18 K | 1.7e-07
435.69 K | 2.23e-07
438.18 K | 2.92e-07
440.71 K | 3.73e-07

CCCCCC[P+](CCCCCC)(CCCCCC)CCCCCC.F[P-](F)(F)(F)(F)F [tetrahexylphosphonium hexafluorophosphate]
Settings | vapor or sublimation pressure [kPa]
395.83 K | 2e-10
400.74 K | 3.8e-10
405.65 K | 7e-10
408.42 K | 1e-09
410.61 K | 1.3e-09
413.37 K | 1.9e-09
415.59 K | 2.4e-09
418.31 K | 3.4e-09
423.24 K | 5.9e-09
428.21 K | 1e-08
430.65 K | 1.4e-08
433.2 K | 1.8e-08
435.66 K | 2.4e-08
438.23 K | 3.1e-08
440.69 K | 4e-08
443.24 K | 5e-08
445.73 K | 6.7e-08
448.28 K | 8.5e-08
451.57 K | 1.23e-07
453.41 K | 1.42e-07

CCCCCC[P+](CCCCCC)(CCCCCC)CCCCCC.[Br-] [tetrahexylphosphonium bromide]
Settings | vapor or sublimation pressure [kPa]
400.93 K | 3.7e-10
403.37 K | 5.3e-10
403.43 K | 5e-10
408.28 K | 9.5e-10
408.37 K | 9.4e-10
410.79 K | 1.2e-09
410.8 K | 1.3e-09
410.82 K | 1.3e-09
413.22 K | 1.7e-09
413.3 K | 1.7e-09
415.71 K | 2.1e-09
415.72 K | 2.2e-09
415.78 K | 2.3e-09
418.18 K | 2.9e-09
418.27 K | 2.9e-09
420.76 K | 3.9e-09
423.16 K | 5.2e-09
423.23 K | 5.4e-09
425.66 K | 6.9e-09
425.67 K | 6.8e-09
425.75 K | 6.8e-09
428.16 K | 8.8e-09
428.22 K | 8.9e-09
430.73 K | 1.2e-08
433.18 K | 1.5e-08
433.24 K | 1.5e-08
435.67 K | 2e-08
435.68 K | 2e-08
435.75 K | 2e-08
438.21 K | 2.5e-08
438.25 K | 2.6e-08
440.7 K | 3.3e-08
440.72 K | 3.3e-08
440.77 K | 3.4e-08
443.24 K | 4.2e-08
443.29 K | 4.3e-08
445.74 K | 5.5e-08
445.75 K | 5.5e-08
445.79 K | 5.8e-08
448.3 K | 7.2e-08
448.31 K | 7.1e-08
450.8 K | 9.1e-08
450.81 K | 9e-08

CCCCCCC[P+](CCCCCC)(CCCCCC)CCCCCC.F[P-](F)(F)(F)(F)F [trihexylheptylphosphonium hexafluorophosphate]
Settings | vapor or sublimation pressure [kPa]
405.87 K | 3.6e-10
408.4 K | 4.9e-10
410.8 K | 6.7e-10
413.34 K | 9e-10
415.74 K | 1.2e-09
418.27 K | 1.6e-09
420.69 K | 2.2e-09
423.22 K | 2.8e-09
425.68 K | 3.8e-09
428.2 K | 4.9e-09
430.66 K | 6.5e-09
433.19 K | 8.4e-09
435.68 K | 1.1e-08
438.21 K | 1.5e-08
440.7 K | 1.9e-08
443.24 K | 2.5e-08
445.74 K | 3.1e-08
448.28 K | 4.2e-08
450.97 K | 5.3e-08
453.32 K | 6.9e-08

Source: the NIST ThermoML archive (doi:10.1016/j.jct.2018.10.007)
